Values of other authors as cited in patent publication US8222237B2, “Progestational 3-(6,6-ethylene-17B-hydroxy-3-oxo-17A-pregna-4-ene-17A-yl)propionic acid G-lactones” (Evestra, Inc., priority 2008, dated 2012).

Assays:
[1] = acidic conditions such as encountered in the gastric environment
[2] = at various pH values
[3] = from a single entity tablet

solubility in water [2]: only sparingly soluble
absolute bioavailability [3]: about 76%
SMILES: C[C@]12CCC(=O)C=C1[C@@H]1C[C@@H]1[C@H]1[C@@H]3[C@@H]4C[C@@H]4[C@@]4(CCC(=O)O4)[C@@]3(C)CC[C@@H]12 [drospirenone, 6β,7β,15β,16β-dimethylene-3-oxo-17α-pregn-4-ene-21,17-carbolactone]
isomerization under acidic conditions [1]: undergo isomerization to a form that is inactive
